Article PMC11280325, “Design, Synthesis, and Characterization of Novel Thiazolidine-2,4-Dione-Acridine Hybrids as Antitumor Agents” (Molecules, 2024)

Legend:
MCF-10A = assay: MTT assay, MCF-10A non-cancerous cells; assay type: cell-based, human; conditions: non-cancerous epithelial breast cells, 48 h incubation
Procedure: (§1) The non-cancerous cell line MCF-10A (human epithelial breast cells) was cultured in a DMEM F12 medium supplemented with 10% FBS (Invitrogen, Carlsbad, CA, USA), 1× HyClone™ Antibiotic/Antimycotic Solution (GE Healthcare, Piscataway, NJ, USA), insulin, hEGF, and hydrocortisone. The BJ-5ta cells (human dermal fibroblasts) were cultured in a DMEM-M199 4:1 medium mixture, supplemented with 10% FBS and hygromycin B (0.01 mg/mL). The cells were maintained under standard conditions with an atmosphere containing 5% CO2 at 37 °C. Cell viability, estimated by trypan blue exclusion, was consistently greater than 95% before each experiment.
(§2) To evaluate the IC50 (half-maximal inhibitory concentration) and confirm the antiproliferative activity of the tested substances, we employed the colorimetric MTT assay (3-(4,5-dimethylthiazol-2-yl)-2,5-diphenyltetrazolium bromide) (Sigma-Aldrich Chemie, Steinheim, Germany). The cell lines were seeded in 96-well plates at a density of 5 × 10^3 to 10 × 10^3 cells per well. After 24 h, the tested substances, dissolved in the cultivation medium, were added to the cells at final concentrations of 5, 10, 20, and 50 µmol/L. The cells were then incubated for 48 h under standard cultivation conditions. Following the incubation period, MTT was added to each well. The MTT was metabolized by the cells into insoluble formazan crystals, which were subsequently dissolved by adding 100 µL of 10% SDS. After another 24 h, the absorbance was measured at a wavelength of 540 nm using the automated Cytation™ 3 Cell Imaging Multi-Mode Reader (Biotek, Winooski, VT, USA). The experiments were performed in at least three independent repetitions. IC50 values were calculated using a nonlinear regression method.

Bj-5ta = assay: MTT assay, BJ-5ta non-cancerous fibroblasts; assay type: cell-based, human; conditions: Homo sapiens, Fibroblast, 48 h, non-cancerous dermal fibroblasts, 48 h incubation
Procedure: as §1, §2

A549 = assay: MTT assay, A549; assay type: cell-based, human; conditions: Homo sapiens, A549, 48 h, lung adenocarcinoma, 48 h incubation
Procedure: (§3) The human cancer cell lines HeLa (cervical adenocarcinoma), HCT116 (colorectal adenocarcinoma), A2780 (human ovarian adenocarcinoma), A2780cis (human ovarian adenocarcinoma cisplatin-resistant), Jurkat (acute T-lymphoblastic leukemia), and Hep G2 (hepatocellular carcinoma) were cultured in an RPMI 1640 growth medium (Biosera, Kansas City, MO, USA). The cancer cell lines MDA-MB-231 (triple-negative breast adenocarcinoma), A2058 (human melanoma), U87 (human glioblastoma), PATU 8902 (pancreas adenocarcinoma), and A549 (human lung adenocarcinoma) were cultured in a DMEM medium (Biosera, Kansas City, MO, USA). The media were supplemented with 10% fetal bovine serum (FBS) (Invitrogen, Carlsbad, CA, USA) and 1× HyClone™ Antibiotic/Antimycotic Solution (GE Healthcare, Piscataway, NJ, USA).
as §2

Hep G2 = assay: MTT assay, Hep G2; assay type: cell-based, human; conditions: Homo sapiens, HepG2, 48 h, hepatocellular carcinoma, 48 h incubation
Procedure: as §3, §2

A2780 = assay: MTT assay, A2780; assay type: cell-based, human; conditions: ovarian adenocarcinoma, 48 h incubation
Procedure: as §3, §2

HeLa = assay: MTT assay, HeLa; assay type: cell-based, human; conditions: cervical adenocarcinoma, 48 h incubation
Procedure: as §3, §2

HCT116 = assay: MTT assay, HCT116; assay type: cell-based, human; conditions: colorectal adenocarcinoma, 48 h incubation
Procedure: as §3, §2

PATU = assay: MTT assay, PATU 8902; assay type: cell-based, human; conditions: pancreas adenocarcinoma, 48 h incubation
Procedure: as §3, §2

A2058 = assay: MTT assay, A2058; assay type: cell-based; conditions: Homo sapiens, A2058, 48 h, human melanoma, 48 h incubation
Procedure: as §3, §2

Structure (SMILES) | IC50 (MCF-10A; Homo sapiens, MCF-10A, 48 h) [µM] | IC50 (Bj-5ta) [µM] | IC50 (A549) [µM] | IC50 (Hep G2) [µM] | IC50 (A2780; Homo sapiens, A2780, 48 h) [µM] | IC50 (HeLa; Homo sapiens, HeLa, 48 h) [µM] | IC50 (HCT116; Homo sapiens, HCT-116, 48 h) [µM] | IC50 (PATU; Homo sapiens, PaTu 8902, 48 h) [µM] | IC50 (A2058) [µM] | melting point | IC50 (HeLa) [µM] | IC50 (HCT116) [µM] | IC50 (MCF-10A) [µM] | IC50 (A2780) [µM] | IC50 (PATU) [µM]
COc1cc(/C=C2\SC(=O)N(Cc3cccc4cc5ccccc5nc34)C2=O)ccc1OCC(=O)Nc1ccccc1C(F)(F)F [Compound 13e, 2-(4-{[(5Z)-3-[(Acridin-4-yl)methyl]-2,4-dioxo-1,3-thiazolidin-5-ylidene]methyl}-2-methoxyphenoxy)-N-[2-(trifluoromethyl)phenyl]acetamide] | 14.9 ± 0.16 | > 50 | > 50 | > 50 | > 50 | 26.7 ± 3.8 | 9.9 ± 1.7 | > 50 | 35.2 ± 2.87 | 217 to 218 °C | – | – | – | – | –
COc1cc(/C=C2\SC(=O)N(Cc3c4ccccc4nc4ccccc34)C2=O)ccc1OCC(=O)Nc1ccccc1C(F)(F)F [Compound 12e, 2-(4-{[(5Z)-3-[(Acridin-9-yl)methyl]-2,4-dioxo-1,3-thiazolidin-5-ylidene]methyl}-2-methoxyphenoxy)-N-[2-(trifluoromethyl)phenyl]acetamide] | > 50 | > 50 | 31.1 ± 4.2 | > 50 | > 50 | – | – | > 50 | > 50 | 255 to 256 °C | 28.2 ± 3.7 | 14.3 ± 1.8 | – | – | –
COc1cc(NC(=O)COc2ccc(/C=C3\SC(=O)N(Cc4cccc5cc6ccccc6nc45)C3=O)cc2)cc(OC)c1 [Compound 8b, 2-(4-{[(5Z)-3-[(Acridin-4-yl)methyl]-2,4-dioxo-1,3-thiazolidin-5-ylidene]methyl}phenoxy)-N-(3,5-dimethoxyphenyl)acetamide] | > 50 | > 50 | > 50 | > 50 | > 50 | – | > 50 | > 50 | > 50 | 168 to 169 °C (dec.) | 12 ± 2.8 | – | – | – | –
COc1cc(/C=C2\SC(=O)N(Cc3c4ccccc4nc4ccccc34)C2=O)ccc1OCC(=O)Nc1ccccc1 [Compound 12a, 2-(4-{[(5Z)-3-[(Acridin-9-yl)methyl]-2,4-dioxo-1,3-thiazolidin-5-ylidene]methyl}-2-methoxyphenoxy)-N-phenylacetamide] | – | > 50 | > 50 | > 50 | – | 18.7 ± 0.45 | – | > 50 | > 50 | 260 to 262 °C | – | > 50 | > 50 | > 50 | –
COc1cc(/C=C2\SC(=O)N(Cc3cccc4cc5ccccc5nc34)C2=O)ccc1OCC(=O)Nc1cc(C(F)(F)F)cc(C(F)(F)F)c1 [Compound 13g, 2-(4-{[(5Z)-3-[(Acridin-4-yl)methyl]-2,4-dioxo-1,3-thiazolidin-5-ylidene]methyl}-2-methoxyphenoxy)-N-[3,5-bis(trifluoromethyl)phenyl]acetamide] | > 50 | > 50 | > 50 | > 50 | > 50 | 17.7 ± 2.9 | – | > 50 | > 50 | 249 to 250 °C | – | 24.9 ± 3.5 | – | – | –
O=C(COc1ccc(/C=C2\SC(=O)N(Cc3c4ccccc4nc4ccccc34)C2=O)cc1)Nc1ccccc1C(F)(F)F [Compound 7e, 2-(4-{[(5Z)-3-[(Acridin-9-yl)methyl]-2,4-dioxo-1,3-thiazolidin-5-ylidene]methyl}phenoxy)-N-[2-(trifluoromethyl)phenyl]acetamide] | > 50 | > 50 | > 50 | > 50 | > 50 | – | – | – | > 50 | 256 to 257 °C (dec.) | > 50 | 22.3 ± 4.6 | – | – | > 50
